This is an account of results in US9156824B2, “CDC7 inhibitors” (Eli Lilly and Company, priority 2013, dated 2015).

The structures appear in SMILES notation. Marks after values point to notes of the source that are not given here.

In one data set the target is T1, CDC7/DBF4 (Homo sapiens, UniProt O00311).
T1 construct: host or cells: insect cells
Nature of the data set: CDC7/DBF4 in vitro enzyme assay (Transcreener Kinase ADP-FP). In kind it is biochemical. The following applies: ATP 5 μM, MCM2 400 nM, 60 minutes, read-out: IC50 against CDC7/DBF4 kinase. Here is the method: The Transcreener™ Kinase ADP-FP assay is used to determine compound IC50 values against CDC7/DBF4 kinase. The Kinase ADP-FP assay assesses the activity of CDC7/DBF4 in the presence of compound inhibitors by measuring the concentration of ADP formed in a kinase reaction. The kinase reaction is performed using a 25 microliter reaction volume in 96 well assay plate. For the ADP-FP assay, the reagents are added to obtain the final reaction conditions of HEPES (25 mM) pH 7.5, 0.03% Triton® X-100, magnesium chloride (10 mM), DTT (1 mM), MCM2 (400 nM) (Amino Acid 1-209, a physiological substrate of CDC7/DBF4), spermine (4 mM), CDC7/DBF4 (2,640 ng/mL) (recombinant human CDC7/DBF4 expressed in insect cells), 4% dimethyl sulfoxide and serial dilutions of compound (diluted 1:3 from 20,000 nM to 1 nM). Enzyme and substrate is added to compound followed by ATP to 5 μM to start the reaction. The plates are incubated at room temperature for 60 minutes.
For the ADP-FP format add 25 microliters of a quench detection reagent containing HEPES (52 mM) pH 7.5, EDTA (20 mM), sodium chloride (0.4 M), polyoxyethyleneglycol dodecyl ether (0.02%) (BRIJ-35™), anti-ADP antibody (10 μg/mL), and ADP (4 nM) Transcreener® ADP Alexa Fluor® 633 tracer to quench the reaction. The plates are incubated for 1 hour, and then read in a Wallac EnVision™ 2104 Multilabel Reader (PerkinElmer) in Fluorescence Polarization mode using polarizing filters of Ex620nm and Em688nm wavelength. Millipolarization (mP) raw data is converted to micromolar ADP using a prepared ADP/ATP standard curve starting at 5 μM ADP 1:1 serial dilution in reaction buffer to 0.0025 μM ADP. The IC50 value for each compound is derived using percent inhibition data calculated from the μM ADP reaction data relative to on-plate controls (DMSO versus 100 mM EDTA inhibited enzyme controls). The percent inhibition and ten-point compound concentration data is then fitted to a four-parameter logistic equation.

Data set [1] can be described thus: Antitumor efficacy in human colorectal carcinoma SW620 mouse xenograft model. In kind it is in vivo. The following applies: female, athymic Balb/c nude, mouse, in vivo, po; BID orally for 2 weeks, tumor-bearing nude mice; read-out: maximum tolerated dose. Here is the method:
(§1) The in vivo anticancer activity of Example 4 is studied in human colorectal adenocarcinoma cell line SW620 mouse xenograft tumor model which is predicted to be sensitive based on in vitro cell counting proliferative assay data described above. The SW620 cell line is obtained from American Type Culture Collection (ATCC) and is cultured in Leibovitz's L-15 Medium with 10% fetal bovine serum following ATCC instructions. SW620 cell suspension (5.0×10^6/0.2 mL) is injected subcutaneously to the right flank of each female athymic Balb/c nude mice. The mice (5-6 weeks old at arrival) are obtained from Shanghai Sippr-bk Laboratory Animals Ltd. Upon receipt and throughout the study, the animals are housed 5 animals per cage in appropriately sized solid-bottom cages with contact bedding Animals are acclimated for 7 days prior to implantation of the SW620 cells. Animals are fed with Shanghai Laboratory Animal Center certified Rodent Diet with 23% Protein ad libitum and autoclaved tap water is provided ad libitum. The animal room is maintained on a 12-hour light/dark cycle. When the tumor volume reaches an average of 154.9 mm^3 (9 days post tumor implantation), the tumor bearing animals are randomly grouped into 9 groups (8 animals/group) with similar mean tumor volume and body weight. The average body weight of the tumor-bearing mice is 17.3 g. The compound is formulated in HEC 1% w/v, P80 0.25% v/v, and antifoam 1520-US 0.025% v/v in deionized water by probe sonication for 15 minutes on ice and compound formulation is prepared daily for animal dosing. The formulated compound is administered at 10.4, 20.8 and 31.2 mg/kg doses (containing 10, 20 and 30 mg/kg active pharmaceutical ingredient API, respectively) twice a day (BID) by oral gavage (0.1 mL/20 g) for 2 weeks. The BID dosing is performed about 8 hours apart (approximately 9 am and 5 pm each day). The vehicle is also given BID as the control arm of the study. Tumor volume and body weight are measured 3 times a week in a blinded manner. Tumor volume is determined by caliper measurements (mm) and using the formula for an ellipsoid sphere: tumor volume (mm^3)=length×width^2/2, where length and width refer to the larger and smaller perpendicular dimensions collected at each measurement. The animal behavior and animal health are monitored twice a day during dosing period. The study is terminated on day 28 post treatment initiation.
(§2) The statistical analysis of the tumor volume data begins with a data transformation to a log scale to equalize variance across time and treatment groups. The log volume data are analyzed with a two-way repeated measures analysis of variance by time and treatment using the MIXED procedures in SAS software (Version 9.3). The correlation model for the repeated measures is Spatial Power. Treated groups are compared to the control group at each time point. The MIXED procedure is also used separately for each treatment group to calculate adjusted means and standard errors at each time point. Both analyses account for the autocorrelation within each animal and the loss of data that occurs when animals with large tumors are removed from the study early. The adjusted means and standard errors are plotted for each treatment group versus time. The analysis comparing the treated groups to the control groups at each time point uses the log 10 tumor volumes and produces the p-values. For statistical significance of p-values shown, “***”=P<0.001.
(§3) If T>T0, the Delta T/C, % calculation is used. […]
Background: Xenograft models place foreign cells or tissue in a host animal.

Another data set concerns SW620 xenograft tumors. The description is as above. The following applies: for % T/C day 16: SW620 xenograft. In kind it is in vivo. The method, then:
as §1, §2, §3

T1 sequence (O00311 whole entry): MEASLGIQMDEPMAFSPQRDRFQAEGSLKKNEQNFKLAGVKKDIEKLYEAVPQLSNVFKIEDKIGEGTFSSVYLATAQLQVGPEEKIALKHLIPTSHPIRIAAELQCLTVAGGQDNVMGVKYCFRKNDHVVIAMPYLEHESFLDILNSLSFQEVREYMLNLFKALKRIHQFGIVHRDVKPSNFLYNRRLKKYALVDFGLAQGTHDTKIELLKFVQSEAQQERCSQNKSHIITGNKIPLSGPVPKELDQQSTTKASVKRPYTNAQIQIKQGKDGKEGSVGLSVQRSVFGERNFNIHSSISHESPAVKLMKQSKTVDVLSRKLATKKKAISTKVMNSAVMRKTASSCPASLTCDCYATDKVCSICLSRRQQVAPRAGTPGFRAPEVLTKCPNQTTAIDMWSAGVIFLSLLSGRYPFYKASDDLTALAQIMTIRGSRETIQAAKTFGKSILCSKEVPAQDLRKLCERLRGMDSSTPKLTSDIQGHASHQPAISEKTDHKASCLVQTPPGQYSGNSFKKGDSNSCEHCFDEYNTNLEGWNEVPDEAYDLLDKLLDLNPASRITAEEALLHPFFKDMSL
T1 sequence (Q9UBU7 whole entry partner): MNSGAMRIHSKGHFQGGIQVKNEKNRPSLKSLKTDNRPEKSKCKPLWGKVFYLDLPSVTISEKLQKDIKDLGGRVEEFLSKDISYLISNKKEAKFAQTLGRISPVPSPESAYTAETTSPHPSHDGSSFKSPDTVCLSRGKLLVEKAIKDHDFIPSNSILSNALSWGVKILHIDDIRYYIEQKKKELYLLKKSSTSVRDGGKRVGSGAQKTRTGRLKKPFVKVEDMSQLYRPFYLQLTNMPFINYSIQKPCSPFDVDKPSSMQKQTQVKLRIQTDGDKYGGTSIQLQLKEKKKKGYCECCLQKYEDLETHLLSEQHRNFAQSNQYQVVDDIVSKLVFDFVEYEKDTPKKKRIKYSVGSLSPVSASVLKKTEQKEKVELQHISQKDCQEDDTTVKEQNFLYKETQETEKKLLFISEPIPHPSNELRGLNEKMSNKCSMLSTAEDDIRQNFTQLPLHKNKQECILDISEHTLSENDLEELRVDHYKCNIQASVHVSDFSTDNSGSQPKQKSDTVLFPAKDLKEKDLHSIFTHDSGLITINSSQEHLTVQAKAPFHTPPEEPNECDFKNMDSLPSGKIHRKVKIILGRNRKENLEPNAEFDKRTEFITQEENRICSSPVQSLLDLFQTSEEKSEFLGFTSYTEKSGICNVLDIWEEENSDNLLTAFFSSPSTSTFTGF

`CC1(c2ncncc2F)NC(=O)c2cc(-c3cn[nH]c3)ccc21` (single isomer, unassigned; isomer 2) [Example 4, 3-(5-Fluoropyrimidin-4-yl)-3-methyl-6-(1H-pyrazol-4-yl)isoindolin-1-one, Isomer 2, Hydrate]: on CDC7/DBF4, the IC50 was 3.3 nM. In addition, the MTD at 2 weeks in data set [1] is 31.2 mg/kg. For the same compound, the “% T/C day 16” value with SW620 xenograft tumors (10.4 mg/kg BID × 14, orally) is on record as 26.1*** %; with SW620 xenograft tumors (20.8 mg/kg BID × 14, orally), 5.7*** %; in the data set with SW620 xenograft tumors (31.2 mg/kg BID × 14, orally, negative value = regression), −66.1*** %. The “tumor growth after dosing cessation” value in the data set with SW620 xenograft tumors (31.2 mg/kg BID, 2 weeks after dosing cessation) is “no significant tumor growth”.
